Structures are written as SMILES.

The text below walks through data of ChEMBL document CHEMBL4130589, “Synthesis of Novel Selenides Bearing Benzenesulfonamide Moieties as Carbonic Anhydrase I, II, IV, VII, and IX Inhibitors” (ACS Med Chem Lett, 2017).

The experiment concerns the target Carbonic anhydrase 9 (Homo sapiens, UniProt Q16790). As to the kind of experiment: Inhibition of recombinant human carbonic anhydrase 9 incubated for 15 mins by stopped flow CO2 hydrase assay.
Regarding `Cc1ccc(S(=O)(=O)N[C@H](C[Se]c2ccc(S(N)(=O)=O)cc2)C(C)C)cc1`, the Ki was found to be 10.1 nM. In the case of `CC(C)[C@@H](C[Se]c1ccc(S(N)(=O)=O)cc1)NC(=O)OC(C)(C)C` it was 2.3 nM; in that of `NS(=O)(=O)c1ccc([Se]CC(O)COCc2ccccc2)cc1` (stereo not drawn), 10.1 nM; in that of `Cc1ccc(S(=O)(=O)N[C@H](C[Se]c2ccc(S(N)(=O)=O)cc2)Cc2ccccc2)cc1`, 2.4 nM. Consider `C=C(C)[C@@H]1CCC(C)(O)C([Se]c2ccc(S(N)(=O)=O)cc2)C1` (stereo partly drawn), for which the inhibition constant Ki stood at 2.4 nM. In the case of `CCCCC(O)C[Se]c1ccc(S(N)(=O)=O)cc1` (stereo not drawn) it was 5.6 nM; in that of `NS(=O)(=O)c1ccc([Se]C2CCCCC2O)cc1` (stereo not drawn), 8.3 nM; in that of `NS(=O)(=O)c1ccc([Se][Se]c2ccc(S(N)(=O)=O)cc2)cc1`, 2.7 nM. With `CC(C)[C@H](N)C[Se]c1ccc(S(N)(=O)=O)cc1`, the Ki is 2.4 nM. `CC(C)OCC(O)C[Se]c1ccc(S(N)(=O)=O)cc1` (stereo not drawn): the inhibitory constant (Ki) was found to be 15.9 nM.

Turning to `C=CCOCC(O)C[Se]c1ccc(S(N)(=O)=O)cc1` (stereo not drawn), the Ki was 11.9 nM. Take `N#C[Se]c1ccc(S(N)(=O)=O)cc1`: the inhibition constant (Ki) amounted to 9.3 nM. In the case of `NS(=O)(=O)c1ccc([Se]CC(O)CBr)cc1` (stereo not drawn) it was 6.5 nM.
